Measurements: PubChem BioAssay (NCI)
Values joined by “and” are separate entries in the source; they are usually repeats but may differ in a detail not shown here. Equal values may be shown once.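 Protocol summary: plate cells (96-well), add compound at 5 concentrations, incubate 48 h, interpolate endpoints linearly. At the GI50, growth is halved. TGI denotes the concentration required for complete inhibition of growth.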

Columns and labels:
Assay in all cases: NCI-60 cell line screen, 48 h
[1] = test system: CAKI-1 renal
[2] = test system: DU-145 prostate
[3] = test system: HOP-92 NSCLC
[4] = test system: HT29 colon
[5] = test system: IGROV1 ovarian
[6] = test system: LOX IMVI melanoma
[7] = test system: MCF7 breast
[8] = test system: SK-MEL-2 melanoma
[9] = test system: SK-MEL-5 melanoma
[10] = test system: TK-10 renal

Row | SMILES | TGI [1] | TGI [2] [µM] | TGI [3] [µM] | TGI [4] [µM] | TGI [5] | TGI [6] [µM] | TGI [7] [µM] | TGI [8] [µM] | TGI [9] [µM] | TGI [10] | GI50 [4] | GI50 [5] | GI50 [7] | GI50 [10]
1 | CCOC(=O)/C=C/C(Br)=C(Br)/C=C/C(=O)OCC | 13.9 µM | 29.1 | 37.1 | 29.1 | 30.1 µM | 7.44 | 26.2 | 49.3 | 27.7 | 28.1 µM | – | – | – | –
2 | COC1OC2COC(c3ccccc3)OC2C(OC(=S)c2ccccc2)C1O (centres undefined) | > 100 µM | > 100 | > 100 | > 100 | > 100 µM | 20.5 | > 100 | > 100 | > 100 | > 100 µM | – | – | – | –
3 | CSC(=N/N=C(\C)c1ccc(S(=O)(=O)N(C)c2ccccc2)cc1)SC | > 100 µM | > 100 | > 100 | > 100 | > 100 µM | > 100 | > 100 | > 100 | > 100 | > 100 µM | – | – | – | –
4 | COc1nc2ncc([C@@H](O)[C@H](O)CO)nc2c(=O)[nH]1 | > 100 µM | > 100 | > 100 | > 100 | > 100 µM | > 100 | > 100 | > 100 | > 100 | > 100 µM | – | – | – | –
5 | O=C1/C(=C/Cc2ccco2)N=C(c2ccccc2)N1c1nc2c(Cl)cc(Cl)cc2s1 | > 100 µM | > 100 | 87.4 | 98.2 | > 100 µM | > 100 | > 100 | 63.5 | > 100 | > 100 µM | – | – | – | –
6 | CC(NC1=NCCO1)c1ccco1 (centres undefined) | > 100 µM | > 100 | > 100 | > 100 | > 100 µM | > 100 | > 100 | > 100 | > 100 | > 100 µM | – | – | – | –
7 | CN1CCN(C2CC(=O)c3c(Cl)sc(Cl)c32)CC1 (centres undefined) | 39.6 µM | 30.2 | > 27 | 33.7 | > 25.6 µM | 3.83 | > 100 | > 59.9 | > 56.4 | > 61 µM | – | – | – | –
8 | N#Cc1nc(C(=O)c2ccccc2)oc1N | > 100 µM | > 100 | > 100 | > 100 | > 100 µM | > 100 | > 100 | > 100 | > 100 | > 100 µM | – | – | – | –
9 | Nc1nn2cc(-c3ccccc3)[n+](CC(=O)c3ccccc3)c2s1 | > 100 µM | > 100 | 35.4 | > 100 | > 100 µM | 35.4 | 24.6 | 30.4 | 73.8 | > 100 µM | – | – | – | –
10 | CC(C)c1cc(C(C)C)c(B(c2ccccc2)c2ccccc2)c(C(C)C)c1Br | > 100 µM | > 100 | > 100 | > 100 | > 100 µM | > 100 | > 100 | > 100 | > 100 | > 100 µM | – | – | – | –
11 | N#CC(NNC(=O)c1c(Cl)c(Cl)c(Cl)c(Cl)c1-c1nc2ccc(C(=O)c3ccccc3)cc2[nH]1)c1cccc(Oc2ccccc2)c1 (centres undefined) | > 100 µM | > 100 | 48.3 | > 100 | 93.1 µM | > 100 | 65.6 | 47.2 | 38.5 | 95.1 µM | – | – | – | –
12 | CC(C)(CO)Nc1c(O)c2c(c(O)c1Cl)C(=O)C=CC2=O | 3.41 µM | 3.35 | 3.3 | 3.4 | 2.92 µM | 1.19 | 2.65 | 4.8 | 2.35 | 3.36 µM | – | – | – | –
13 | NC(=O)c1ccc(S(=O)(=NS(=O)(=O)c2ccccc2)c2ccc(C(N)=O)cc2)cc1 | > 100 µM | > 100 | > 100 | > 100 | > 100 µM | > 100 | > 100 | > 100 | > 100 | > 100 µM | – | – | – | –
14 | CCOC(=O)CCC1(C(=O)O[C@@H]2C[C@H](C)CC[C@H]2C(C)C)CCCCC1=O (some centres undefined) | > 100 µM | > 100 | > 100 | > 100 | > 100 µM | > 100 | > 100 | > 100 | > 100 | > 100 µM | – | – | – | –
15 | Cc1cnc2[nH]c(-c3sccc3C)cc(=O)c2c1 | > 100 µM | > 100 | > 100 | 10.3 | > 100 µM | > 100 | > 100 | > 100 | 21.7 | > 100 µM | – | – | – | –
16 | CC1C/C(=C\c2ccc(O)c(O)c2)C(=O)/C(=C/c2ccc(O)c(O)c2)C1 (centres undefined) | 18.1 µM | 20.8 | 18.7 | 34.2 | 19.8 µM | 23.4 | 14.8 | 34.8 | 13.7 | > 100 µM | – | – | – | –
17 | C[S+](C)C1(c2ccccc2)C(=O)c2ccccc2C1=O | > 100 µM | > 100 | > 100 | > 100 | > 100 µM | > 72.7 | > 100 | > 73.2 | > 53.5 | > 100 µM | – | – | – | –
18 | Cc1cc(C)c(N)c(CO)c1 | > 32.1 µM and 27.5 µM | > 100 | > 100 | > 100 | 33.3 µM and 46.9 µM | > 100 | > 100 | > 100 | > 100 | 18.7 µM and > 38.5 µM | 12.5 µM and 38.2 µM | 4.25 µM and 10.2 µM | 7.28 µM and 16 µM | 2.61 µM and 6.9 µM
19 | COC1OC(=O)C(OC)C(OC)C1OC (centres undefined) | > 100 µM | > 100 | > 100 | > 100 | > 100 µM | > 100 | > 100 | > 100 | > 100 | > 100 µM | – | – | – | –
